These results are taken from patent US6800482B2, “Cultured cells of Australian laurel, Pittosporaceae and a method for culturing tissues by using said cultured cells” (Hiroshima University, priority 2001, dated 2004).

Common to all, as to assay type: cell-based
The test system of assay [1] is cut pieces from the stem of Australian laurel, Pittosporaceae. Put plainly: Tissue culture of cut pieces in culture medium containing thidiazuron and naphthaleneacetic acid (Example 1, Table 1). The following applies: for Numbers of cut pieces leading to stem or leaf/10 cut pieces: NAA 0 μM, WP culture medium, 6 weeks. The procedure:
(§1) A WP culture medium or a MS culture medium was used as a fundamental culture medium. As a carbon source was used 1% sucrose, and 0.3% Gellan-Gum (Trade name) was used as a gelling agent. An Australian laurel, Pittosporaceae seed was treated with 70% ethanol for 1 hour with 2.5% sodium hypochlorite for 1 hour, and sterilized by washing it with sterilized water. After water was fed to the seed 2 night or more at 4° C. in dark, it was planted in the culture medium. After germination, a seedling of four weeks age was used for a tissue culturing. Cut pieces, 1 mm thick, were prepared from a leave, a stem and a roof of the living matter, and planted and cultured in the same culture medium as mentioned above but containing naphthaleneacetic acid and thidiazuron (TDZ) as a hormon. […] About 2 months after the planting, a shoot was cut out from the polyblast, and indoleacetic acid was applied to a cut portion of the shoot. The shoot treated with indoleacetic acid was inserted into a solid culture medium or a mixed soil of perlite and vermiculite containing a culture medium. The shoot was cultured and rooted.
Cut pieces from the stem was cultured in the WP culture medium added with thidiazuron and naphthaleneacetic acid for 6 weeks, and observation results thereof are shown in Table 1.

The subject of assay [2] is leaf of the Australian laurel, Pittosporaceae. Nature of the assay: Redifferentiation from the leaf in WP culture medium (Example 3, Table 2). The note with it: NAA 0 μM, 22 to 28° C., bright place. As to the method:
as §1
Redifferentiation from the leaf and the stem of the Australian laurel, Pittosporaceae was examined. The WP culture medium was used as a culture medium. A culturing temperature was set in a range of 22 to 28° C. The Australian laurel, Pittosporaceae was cultured in a bright place. […]

In assay [3] the test system is Embryo (text: stem) of the Australian laurel, Pittosporaceae. Nature of the assay: Redifferentiation, column Embryo, in WP culture medium (Example 3, Table 2). The following applies: for Redifferentiation Embryo: NAA 0 μM, WP culture medium, 22 to 28° C., bright place. As to the method: as §1
Redifferentiation from the leaf and the stem of the Australian laurel, Pittosporaceae was examined. The WP culture medium was used as a culture medium. A culturing temperature was set in a range of 22 to 28° C. The Australian laurel, Pittosporaceae was cultured in a bright place. The planting condition and the other culturing conditions were the same as those in Example 1.

As for `O=C(Nc1ccccc1)Nc1cnns1` [TDZ, thidiazuron], the “Numbers of cut pieces leading to stem or leaf/10 cut pieces” value in assay [1] (TDZ 0.1 μm) and in assay [1] (TDZ 10 μm) was 0 /10 cut pieces throughout. Further, the Redifferentiation entry in assay [1] (concentration of thidiazuron not less than 10 μM, culture medium containing naphthaleneacetic acid) is “redifferentiation was confirmed”. Further, the “Redifferentiation Leaf” value in assay [2] (TDZ 10^4 nM) and in assay [2] (TDZ 10^5 nM) was 0% each time. For the same compound, the figures for the “Redifferentiation Embryo” value in assay [3] (TDZ 10^4 nM) and in assay [3] (TDZ 10^5 nM) were 5.0% and 10.0%, respectively. Also, the Redifferentiation percentages entry in assay [3] (cultures containing 10^4 to 10^5 nM thidiazuron) is “considerably high redifferentiation percentages”.
